According to ChEMBL document CHEMBL4251633, “Design, synthesis, biological evaluation and cocrystal structures with tubulin of chiral β-lactam bridged combretastatin A-4 analogues as potent antitumor agents” (Eur J Med Chem, 2018):
Activity calls are given as the source filed them. No cut-off for these calls is given here.

Assays:
[1] = Acute toxicity in ICR mouse assessed as survival rate at 125 mg/kg, ip measured on day 14 (reference value: 100%); type: organism-based; settings: in vivo
HeLa [2] = assay: Induction of apoptosis in human HeLa cells assessed as late apoptotic cells at 50 nM after 48 hrs by Annexin V-FITC/propidium iodide staining based flow cytometry (reference value: 2%); type: functional
A2780 [3] = assay: cells; settings: Homo sapiens, A2780, 48 h
Description: Antiproliferative activity against human A2780 cells after 48 hrs by MTT assay

[4] = Acute toxicity in ICR mouse assessed as survival rate at 100 mg/kg, ip measured on day 14 (reference value: 100%); type: organism-based; settings: in vivo
Homo sapiens = organism: Homo sapiens; assay: Disruption of microtubule structure in human SKOV3 cells assessed as decrease in density at 100 nM after 24 hrs by DAPI staining based immunofluorescence assay; type: cell-based
A2780 [5] = assay: Antitumor activity against human A2780 cells xenografted in Balb/c nude mouse assessed as isolated tumor weight inhibition at 8 mg/kg, ip once in every 2 days measured after 14 days; type: functional, organism-based
HeLa [6] = assay: Induction of apoptosis in human HeLa cells assessed as early apoptotic cells at 200 nM after 48 hrs by Annexin V-FITC/propidium iodide staining based flow cytometry (reference value: 0.7%); type: functional
Mus musculus [7] = assay: Acute toxicity in ICR mouse assessed as death at 100 to 200 mg/kg, ip measured after 4 days; type: organism-based; settings: in vivo, 96 h
HeLa [8] = assay: Inhibition of alpha-tubulin polymerization in human HeLa cells assessed as increase in ratio of supernatant faction to pellet fraction at 500 nM after 6 hrs by Western blot analysis; type: cell-based
MDA-MB-231 [9] = assay: Antiproliferative activity against human MDA-MB-231 cells after 48 hrs by MTT assay; type: functional, cell-based; settings: MDA-MB-231, 48 h
Mus musculus [10] = assay: Toxicity in Balb/c nude mouse xenografted with human A2780 cells assessed as abnormality in liver at 8 mg/kg, ip once in every 2 days measured after 14 days by H and E staining based assay; type: organism-based; settings: in vivo, 336 h
HeLa [11] = assay: Induction of apoptosis in human HeLa cells after 48 hrs by Annexin V-FITC/propidium iodide staining based flow cytometry; type: functional, cell-based
HeLa [12] = assay: Induction of apoptosis in human HeLa cells assessed as necrotic cells at 200 nM after 48 hrs by Annexin V-FITC/propidium iodide staining based flow cytometry (reference value: 0.9%); type: functional
HeLa [13] = assay: Cell cycle arrest in human HeLa cells assessed as accumulation at G2/M-phase at 25 to 50 nM after 24 hrs by propidium iodide staining based flow cytometry; type: functional
SK-OV-3 = assay: Antiproliferative activity against human SKOV3 cells after 48 hrs by MTT assay; settings: SK-OV-3, 48 h
[14] = (§1) Inhibition of pig brain tubulin polymerization measured every 1 min for 20 mins by spectrophotometric method; set-up: species or system Sus scrofa
Sus scrofa = organism: Sus scrofa; assay: as §1
Mus musculus [15] = assay: Toxicity in Balb/c nude mouse xenografted with human A2780 cells assessed as abnormality in spleen at 8 mg/kg, ip once in every 2 days measured after 14 days by H and E staining based assay; type: organism-based; settings: in vivo, 336 h
HeLa [16] = assay: Induction of apoptosis in human HeLa cells assessed as live cells at 100 nM after 48 hrs by Annexin V-FITC/propidium iodide staining based flow cytometry (reference value: 96.5%); type: functional
HeLa [17] = assay: Upregulation of p53 protein expression in human HeLa cells after 48 hrs by Western blot analysis; type: functional, cell-based
HeLa [18] = assay: Induction of apoptosis in human HeLa cells assessed as live cells at 200 nM after 48 hrs by Annexin V-FITC/propidium iodide staining based flow cytometry (reference value: 96.5%); type: functional
[19] = Acute toxicity in ICR mouse assessed as death administered ip measured up to 14 days; type: organism-based; settings: in vivo
HeLa [20] = assay: Upregulation of Bax protein expression in human HeLa cells after 48 hrs by Western blot analysis; type: functional, cell-based
[21] = biological target: Mitotic checkpoint serine/threonine-protein kinase BUB1 beta (Homo sapiens) (UniProt O60566); assay: Induction of BubR1 hyperphosphorylation in human HeLa cells by Western blot analysis; type: cell-based
Mitotic checkpoint serine/threonine-protein kinase BUB1 beta (Homo sapiens), sequence (O60566 whole entry): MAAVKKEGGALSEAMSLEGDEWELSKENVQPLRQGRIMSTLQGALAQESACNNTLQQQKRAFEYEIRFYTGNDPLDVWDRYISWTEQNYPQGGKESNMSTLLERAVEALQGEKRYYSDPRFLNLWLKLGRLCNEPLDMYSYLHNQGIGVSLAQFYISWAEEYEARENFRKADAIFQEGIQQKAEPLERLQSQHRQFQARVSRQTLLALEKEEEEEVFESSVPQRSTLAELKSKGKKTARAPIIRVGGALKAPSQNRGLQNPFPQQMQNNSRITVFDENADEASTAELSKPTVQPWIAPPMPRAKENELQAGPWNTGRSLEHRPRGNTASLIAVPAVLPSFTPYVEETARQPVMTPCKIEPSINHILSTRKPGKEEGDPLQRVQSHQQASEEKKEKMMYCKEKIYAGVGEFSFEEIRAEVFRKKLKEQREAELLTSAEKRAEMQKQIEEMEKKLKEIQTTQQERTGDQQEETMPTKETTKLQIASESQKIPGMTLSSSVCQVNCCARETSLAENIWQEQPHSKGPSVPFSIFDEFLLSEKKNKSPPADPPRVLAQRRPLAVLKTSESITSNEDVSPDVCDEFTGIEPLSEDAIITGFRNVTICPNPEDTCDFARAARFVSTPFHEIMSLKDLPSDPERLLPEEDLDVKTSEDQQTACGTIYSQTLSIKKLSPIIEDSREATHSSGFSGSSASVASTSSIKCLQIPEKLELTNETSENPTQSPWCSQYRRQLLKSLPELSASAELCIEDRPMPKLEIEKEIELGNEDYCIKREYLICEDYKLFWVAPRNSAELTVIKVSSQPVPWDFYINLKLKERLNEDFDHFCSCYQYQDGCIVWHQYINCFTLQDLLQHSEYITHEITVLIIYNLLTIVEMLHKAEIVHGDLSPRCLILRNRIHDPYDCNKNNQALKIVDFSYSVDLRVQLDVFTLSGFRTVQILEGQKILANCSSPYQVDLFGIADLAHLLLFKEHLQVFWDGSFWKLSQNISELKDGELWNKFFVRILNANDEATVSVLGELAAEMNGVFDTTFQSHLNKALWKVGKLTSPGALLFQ

HUVEC = assay: Antiangiogenic activity against HUVEC assessed as disruption of capillary-like tube formation at 50 nM after 12 hrs by inverted microscopic method; type: functional, cell-based; settings: Homo sapiens
HeLa [22] = assay: Induction of apoptosis in human HeLa cells assessed as early apoptotic cells at 100 nM after 48 hrs by Annexin V-FITC/propidium iodide staining based flow cytometry (reference value: 0.7%); type: functional
HeLa [23] = assay: Induction of apoptosis in human HeLa cells assessed as late apoptotic cells at 200 nM after 48 hrs by Annexin V-FITC/propidium iodide staining based flow cytometry (reference value: 2%); type: functional
Mus musculus [24] = assay: Acute toxicity in ICR mouse assessed as death at 150 mg/kg, ip measured after 3 days; type: organism-based; settings: in vivo, 72 h
Mus musculus [25] = assay: Acute toxicity in ICR mouse assessed as death at 100 mg/kg, ip measured after 2 days; type: organism-based; settings: in vivo, 48 h
A2780 [26] = assay: Antitumor activity against human A2780 cells xenografted in Balb/c nude mouse assessed as tumor volume inhibition at 8 mg/kg, ip once in every 2 days measured up to 14 days relative to control; type: functional
HeLa [27] = assay: Upregulation of cleaved PARP1 protein expression in human HeLa cells after 48 hrs by Western blot analysis; type: functional, cell-based
A2780 [28] = assay: Antitumor activity against human A2780 cells xenografted in Balb/c nude mouse assessed as tumor weight inhibition at 8 mg/kg, ip once in every 2 days measured up to 14 days; type: functional, organism-based
[29] = Acute toxicity in ICR mouse assessed as survival rate at 200 mg/kg, ip measured on day 14 (reference value: 100%); type: organism-based; settings: in vivo
Mus musculus [30] = assay: Anti-vascular activity in Balb/c nude mouse assessed as inhibition of VEGF-induced capillary blood vessel formation using sc injected matrigel plug supplemented with 100 nM test compound mixed with VEGF and measured after 1 week by matrigel plug assay; type: functional, organism-based
HeLa [31] = assay: Antiproliferative activity against human HeLa cells after 48 hrs by MTT assay; type: functional, cell-based
HeLa [32] = assay: Induction of apoptosis in human HeLa cells assessed as necrotic cells at 50 nM after 48 hrs by Annexin V-FITC/propidium iodide staining based flow cytometry (reference value: 0.9%); type: functional
[33] = Growth inhibition of HOSEC at 1 uM after 48 hrs by MTT assay relative to control; settings: human, HOSEC cells; read-out: GI
MDA-MB-231 [34] = assay: Anticlonogenic activity against human MDA-MB-231 cells incubated for 48 hrs followed by replacement with fresh medium measured after 7 to 10 days by gentian violet staining based assay; type: functional, cell-based
Mus musculus [35] = assay: Toxicity in Balb/c nude mouse xenografted with human A2780 cells assessed as abnormality in kidney at 8 mg/kg, ip once in every 2 days measured after 14 days by H and E staining based assay; type: organism-based; settings: in vivo, 336 h
HeLa [36] = assay: Induction of apoptosis in human HeLa cells assessed as live cells at 50 nM after 48 hrs by Annexin V-FITC/propidium iodide staining based flow cytometry (reference value: 96.5%); type: functional
A2780 [37] = assay: Antitumor activity against human A2780 cells xenografted in Balb/c nude mouse assessed as induction of tumor necrosis at 8 mg/kg, ip once in every 2 days measured after 14 days by H and E staining based assay; type: functional, organism-based

With `COc1ccc([C@H]2[C@H](C)C(=O)N2c2cc(OC)c(OC)c(OC)c2)cc1O` the survival at 14 day [1] was 70%, the Activity (HeLa [2]) was 23.4% and the IC50 (A2780 [3]) was 2 nM. The survival at 14 day [4] was 90%, the Activity (Homo sapiens) was “Active” and the inhibition (A2780 [5]) was “Active”. The Activity (HeLa [6]) was 37.5%, the Activity (Mus musculus [7]) was “Non-Toxic” and the “tubulin polymerization inhibition (active/inactive)” value (HeLa [8]) was “Active”. The IC50 (MDA-MB-231 [9]) was 3 nM, the Activity (Mus musculus [10]) was “Non-Toxic” and the Activity (HeLa [11]) was “Dose-dependent effect”. For the same compound, the Activity (HeLa [12]) was 7.2%, the Activity (HeLa [13]) was “Active” and the IC50 (SK-OV-3) was 3 nM. For the same compound, the IC50 [14] was 1700 nM, the inhibition (Sus scrofa) was “Dose-dependent effect” and the Activity (Mus musculus [15]) was “Non-Toxic”. For the same compound, the Activity (HeLa [16]) was 27.3%, the Activity (HeLa [17]) was “Dose-dependent effect” and the Activity (HeLa [18]) was 21.6%. The LD50 at 336 h [19] was 136 mg/kg, the Activity (HeLa [20]) was “Dose-dependent effect” and the Activity [21] was “Dose-dependent effect”. The Activity (HUVEC) was “Active”, the Activity (HeLa [22]) was 35.2% and the Activity (HeLa [23]) was 33.8%. For the same compound, the Activity (Mus musculus [24]) was “Non-Toxic”, the Activity (Mus musculus [25]) was “Non-Toxic” and the inhibition in vivo at 8 mg/kg (A2780 [26]) was 76.3%. The Activity (HeLa [27]) was “Dose-dependent effect”, the inhibition (A2780 [28]) was “Active” and the survival at 14 day [29] was 30%. The inhibition (Mus musculus [30]) was “Active”, the IC50 (HeLa [31]) was 1 nM and the Activity (HeLa [32]) was 5.3%. For the same compound, the inhibition at 48 h, 1 µM [33] was < 50%, the Activity (MDA-MB-231 [34]) was “Dose-dependent effect” and the Activity (Mus musculus [35]) was “Non-Toxic”. For the same compound, the Activity (HeLa [36]) was 42% and the Activity (A2780 [37]) was “Active”.
